According to patent US12043632B2, “6-heteroaryloxy benzimidazoles and azabenzimidazoles as JAK2 inhibitors” (Ajax Therapeutics, Inc., priority 2020, dated 2024):

Target: T1, JAK2 (JH1domain-catalytic, Y1007F,Y1008F) kinase (Homo sapiens, UniProt O60674, Y1007F/Y1008F)
T1 construct: JAK2 (JH1domain-catalytic, Y1007F,Y1008F) kinase was expressed as N-terminal fusion; made in house; host or cells: transiently transfected HEK293 cells
Assay: JAK2 JH1 Domain Binding Assay
Settings: qPCR readout

T1 sequence (O60674 849-1124 Y1007F/Y1008F limits assumed): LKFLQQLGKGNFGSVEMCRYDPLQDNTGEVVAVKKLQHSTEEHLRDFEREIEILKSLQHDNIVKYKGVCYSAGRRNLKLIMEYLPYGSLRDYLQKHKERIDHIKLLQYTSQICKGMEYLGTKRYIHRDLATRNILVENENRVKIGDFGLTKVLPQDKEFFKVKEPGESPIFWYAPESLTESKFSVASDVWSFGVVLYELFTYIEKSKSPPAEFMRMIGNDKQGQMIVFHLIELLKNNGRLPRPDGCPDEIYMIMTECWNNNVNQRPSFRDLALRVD

| SMILES | Kd [nM] |
| --- | --- |
| Cn1c(Nc2cc(C(C)(C)C)n([C@@H]3CCOC3)n2)nc2ncc(Oc3cnc4[nH]c(C5CC5)cc4c3)cc21 [Example I-1, (R)—N-(5-(tert-butyl)-1-(tetrahydrofuran-3-yl)-1H-pyrazol-3-yl)-6-((2-cyclopropyl-1H-pyrrolo[2,3-b]pyridin-5-yl)oxy)-1-methyl-1H-imidazo[4,5-b]pyridin-2-amine] | 10 to 50 |
| Cn1c(Nc2cc(C(C)(C)C)n([C@H]3CCOC3)n2)nc2ncc(Oc3cnc4[nH]c(C5CC5)cc4c3)cc21 [Example I-2, (S)—N-(5-(tert-butyl)-1-(tetrahydrofuran-3-yl)-1H-pyrazol-3-yl)-6-((2-cyclopropyl-1H-pyrrolo[2,3-b]pyridin-5-yl)oxy)-1-methyl-1H-imidazo[4,5-b]pyridin-2-amine] | 10 to 50 |
| Cc1n[nH]c2ncc(Oc3cnc4nc(Nc5cc(C(C)(C)C)n([C@@H]6CCOC6)n5)n(C)c4c3)cc12 [Example I-3] | < 10 |
| Cc1n[nH]c2ncc(Oc3cnc4nc(Nc5cc(C(C)(C)C)n([C@H]6CCOC6)n5)n(C)c4c3)cc12 [Example I-4, (S)—N-(5-(tert-butyl)-1-(tetrahydrofuran-3-yl)-1H-pyrazol-3-yl)-1-methyl-6-((3-methyl-1H-pyrazolo[3,4-b]pyridin-5-yl)oxy)-1H-imidazo[4,5-b]pyridin-2-amine] | < 10 |
| Cc1cc2ncc(Oc3cnc4nc(Nc5cc(C(C)(C)C)n([C@@H]6CCOC6)n5)n(C)c4c3Cl)cn2n1 [Example I-5, (R)—N-(5-(tert-butyl)-1-(tetrahydrofuran-3-yl)-1H-pyrazol-3-yl)-7-chloro-1-methyl-6-((2-methylpyrazolo[1,5-a]pyrimidin-6-yl)oxy)-1H-imidazo[4,5-b]pyridin-2-amine] | 10 to 50 |
| Cc1cc2ncc(Oc3cnc4nc(Nc5cc(C(C)(C)C)n([C@H]6CCOC6)n5)n(C)c4c3Cl)cn2n1 [Example I-6, (S)—N-(5-(tert-butyl)-1-(tetrahydrofuran-3-yl)-1H-pyrazol-3-yl)-7-chloro-1-methyl-6-((2-methylpyrazolo[1,5-a]pyrimidin-6-yl)oxy)-1H-imidazo[4,5-b]pyridin-2-amine] | 10 to 50 |
| Cn1c(Nc2cc(C(C)(C)C)n([C@@H]3CCOC3)n2)nc2ncc(Oc3cnc4[nH]cc(C#N)c4c3)cc21 [Example I-9] | 50 to 1000 |
| Cn1c(Nc2cc(C(C)(C)C)n([C@H]3CCOC3)n2)nc2ncc(Oc3cnc4[nH]cc(C#N)c4c3)cc21 [Example I-10, (S)-5-((2-((5-(tert-butyl)-1-(tetrahydrofuran-3-yl)-1H-pyrazol-3-yl)amino)-1-methyl-1H-imidazo[4,5-b]pyridin-6-yl)oxy)-1H-pyrrolo[2,3-b]pyridine-3-carbonitrile] | 1000 to 5000 |
| COCc1c[nH]c2ncc(Oc3cnc4nc(Nc5cc(C(C)(C)C)n([C@@H]6CCOC6)n5)n(C)c4c3)cc12 [Example I-11] | < 10 |
| COCc1c[nH]c2ncc(Oc3cnc4nc(Nc5cc(C(C)(C)C)n([C@H]6CCOC6)n5)n(C)c4c3)cc12 [Example I-12] | < 10 |
| Cn1c(Nc2cc(C(C)(C)C)n([C@H]3CCOC3)n2)nc2ncc(Oc3cnn4ccnc4c3)c(Cl)c21 [Example I-13, (S)—N-(5-(tert-butyl)-1-(tetrahydrofuran-3-yl)-1H-pyrazol-3-yl)-7-chloro-6-(imidazo[1,2-b]pyridazin-7-yloxy)-1-methyl-1H-imidazo[4,5-b]pyridin-2-amine] | 10 to 50 |
| Cn1c(Nc2cc(C(C)(C)C)n([C@@H]3CCOC3)n2)nc2ncc(Oc3cnn4ccnc4c3)c(Cl)c21 [Example I-14, (R)—N-(5-(tert-butyl)-1-(tetrahydrofuran-3-yl)-1H-pyrazol-3-yl)-7-chloro-6-(imidazo[1,2-b]pyridazin-7-yloxy)-1-methyl-1H-imidazo[4,5-b]pyridin-2-amine] | 10 to 50 |
| Cn1c(Nc2cc(C(C)(C)C)n([C@@H]3CCOC3)n2)nc2ncc(Oc3cnn4cnnc4c3)c(Cl)c21 [Example I-15, (R)-6-([1,2,4]triazolo[4,3-b]pyridazin-7-yloxy)-N-(5-(tert-butyl)-1-(tetrahydrofuran-3-yl)-1H-pyrazol-3-yl)-7-chloro-1-methyl-1H-imidazo[4,5-b]pyridin-2-amine] | 50 to 1000 |
| Cn1c(Nc2cc(C(C)(C)C)n([C@H]3CCOC3)n2)nc2ncc(Oc3cnn4cnnc4c3)c(Cl)c21 [Example I-16, (S)-6-([1,2,4]triazolo[4,3-b]pyridazin-7-yloxy)-N-(5-(tert-butyl)-1-(tetrahydrofuran-3-yl)-1H-pyrazol-3-yl)-7-chloro-1-methyl-1H-imidazo[4,5-b]pyridin-2-amine] | 10 to 50 |

The remaining lines, values ahead:

| Kd [nM] | SMILES |
| --- | --- |
| 10 to 50 | CNc1nccn2ncc(Oc3cnc4nc(Nc5cc([C@H]6CCOC6)nc(C(F)(F)F)c5)n(C)c4c3Cl)c12 (single isomer, unassigned) [Example I-280-b] |
| < 10 | CNc1cn2ncc(Oc3cnc4nc(Nc5cc(C(F)(F)F)cn([C@H]6CCOC6)c5=O)n(C)c4c3Cl)c2cn1 (single isomer, unassigned) [Example I-305] |
| 10 to 50 | CNc1cn2ncc(Oc3cnc4nc(Nc5cc(C(F)(F)F)cn([C@@H]6CCOC6)c5=O)n(C)c4c3Cl)c2cn1 (single isomer, unassigned) [Example I-306] |
| < 10 | CN1CCCC1c1ccc(Nc2nc3ncc(Oc4cnn5ccncc45)c(Cl)c3n2C)cc1C(F)(F)F (single isomer, unassigned) [Example I-343] |
| < 10 | CN1CCC[C@@H]1c1ccc(Nc2nc3ncc(Oc4cnn5ccncc45)c(Cl)c3n2C)cc1C(F)(F)F (single isomer, unassigned) [Example I-344] |
| < 10 | CN1CCCCC1COc1cc(Nc2nc3ncc(Oc4cnn5ccncc45)c(Cl)c3n2C)cc(C(F)(F)F)c1 (single isomer, unassigned) [Example I-350-a] |
| < 10 | CN1CCCCC1COc1cc(Nc2nc3ncc(Oc4cnn5ccncc45)c(Cl)c3n2C)cc(C(F)(F)F)c1 (single isomer, unassigned) [Example I-350-b] |
| 10 to 50 | CNc1cn2ncc(Oc3cnc4nc(Nc5cc(C(F)(F)F)cn([C@H]6CCCOC6)c5=O)n(C)c4c3Cl)c2cn1 (single isomer, unassigned) [Example I-352-a] |
| 10 to 50 | CNc1cn2ncc(Oc3cnc4nc(Nc5cc(C(F)(F)F)cn([C@@H]6CCCOC6)c5=O)n(C)c4c3Cl)c2cn1 (single isomer, unassigned) [Example I-352-b] |
| 50 to 1000 | CNc1cn2ncc(Oc3cnc4nc(Nc5cc([C@H]6CCCN6C)cc(C(F)(F)F)c5)n(C)c4c3Cl)c2cn1 (single isomer, unassigned) [Example I-359-a] |
| 50 to 1000 | CNc1cn2ncc(Oc3cnc4nc(Nc5cc([C@@H]6CCCN6C)cc(C(F)(F)F)c5)n(C)c4c3Cl)c2cn1 (single isomer, unassigned) [Example I-359-b] |
| 10 to 50 | COCCN1CCC(n2nc(Nc3nc4ncc(Oc5cnn6ccncc56)c(C(F)F)c4n3C)cc2C(C)(C)C)C1 (stereo in doubt) [Example I-52, (S)—N-(5-(tert-butyl)-1-(1-(2-methoxyethyl)pyrrolidin-3-yl)-1H-pyrazol-3-yl)-7-(difluoromethyl)-1-methyl-6-(pyrazolo[1,5-a]pyrazin-3-yloxy)-1H-imidazo[4,5-b]pyridin-2-amine] |
| < 10 | Cn1c(Nc2cc(C(F)(F)F)cn([C@H]3C[C@H](O)C3)c2=O)nc2ncc(Oc3cnn4ccncc34)c(Cl)c21 (stereo in doubt) [Example I-89, trans-3-((7-chloro-1-methyl-6-(pyrazolo[1,5-a]pyrazin-3-yloxy)-1H-imidazo[4,5-b]pyridin-2-yl)amino)-1-(3-hydroxycyclobutyl)-5-(trifluoromethyl)pyridin-2(1H)-one] |
| < 10 | Cn1c(Nc2ccc(CN3CCC(O)C3)c(C(F)(F)F)c2)nc2ncc(Oc3cnn4ccncc34)c(Cl)c21 (stereo in doubt) [Example I-185, (S)-1-(4-((7-chloro-1-methyl-6-(pyrazolo[1,5-a]pyrazin-3-yloxy)-1H-imidazo[4,5-b]pyridin-2-yl)amino)-2-(trifluoromethyl)benzyl)pyrrolidin-3-ol] |
| < 10 | Cn1c(Nc2ccc(CN3CCC(O)C3)c(C(F)(F)F)c2)nc2ncc(Oc3cnn4ccncc34)c(Cl)c21 (stereo in doubt) [Example I-186, (R)-1-(4-((7-chloro-1-methyl-6-(pyrazolo[1,5-a]pyrazin-3-yloxy)-1H-imidazo[4,5-b]pyridin-2-yl)amino)-2-(trifluoromethyl)benzyl)pyrrolidin-3-ol] |
| < 10 | Cn1c(Nc2cc(N3CCC(O)C3)cc(C(F)(F)F)c2)nc2ncc(Oc3cnn4ccncc34)c(Cl)c21 (stereo in doubt) [Example I-239, (S)-1-(3-((7-chloro-1-methyl-6-(pyrazolo[1,5-a]pyrazin-3-yloxy)-1H-imidazo[4,5-b]pyridin-2-yl)amino)-5-(trifluoromethyl)phenyl)pyrrolidin-3-ol] |
| < 10 | CN(C)C1CCN(Cc2cc(Nc3nc4ncc(Oc5cnn6ccncc56)c(Cl)c4n3C)cc(C(F)(F)F)c2)C1 (stereo in doubt) [Example I-272, (R)-7-chloro-N-(3-((3-(dimethylamino)pyrrolidin-1-yl)methyl)-5-(trifluoromethyl)phenyl)-1-methyl-6-(pyrazolo[1,5-a]pyrazin-3-yloxy)-1H-imidazo[4,5-b]pyridin-2-amine] |
| 10 to 50 | Cn1c(Nc2cc(C(F)(F)C(F)(F)F)n([C@@H]3CCOC3)n2)nc2ncc(Oc3cnc4ccnn4c3)c(Cl)c21 [Example I-7, (R)-7-chloro-1-methyl-N-(5-(perfluoroethyl)-1-(tetrahydrofuran-3-yl)-1H-pyrazol-3-yl)-6-(pyrazolo[1,5-a]pyrimidin-6-yloxy)-1H-imidazo[4,5-b]pyridin-2-amine] |
| 10 to 50 | Cn1c(Nc2cc(C(F)(F)C(F)(F)F)n([C@H]3CCOC3)n2)nc2ncc(Oc3cnc4ccnn4c3)c(Cl)c21 [Example I-8, (S)-7-chloro-1-methyl-N-(5-(perfluoroethyl)-1-(tetrahydrofuran-3-yl)-1H-pyrazol-3-yl)-6-(pyrazolo[1,5-a]pyrimidin-6-yloxy)-1H-imidazo[4,5-b]pyridin-2-amine] |
